Assay results: the supplement of paper PMC5908809

Tests used:
[1] = test system: normal NK cells expanded with K562-aAPC; test: percent inhibition of viability; higher = more inhibition; conditions: 72 h, IL-2 2.5 ng/mL
Protocol: (§1)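 Drug sensitivity and resistance testing on K562-aAPC-expanded normal NK cells: 5 concentrations (10-fold steps over a 10,000-fold range), 72 h at 37 °C, viability by CellTiter-Glo normalised to DMSO and benzethonium chloride controls; DSS from the fitted curve.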

KAI3 (IL-2 2.5 ng/mL) [2] = test: drug sensitivity score (DSS) (DSS units); higher = more sensitive; extreme values may be limits of the assay; conditions: 72 h
[3] = test system: normal primary NK cells, pool 3 (3 donors) (IL-2 2.5 ng/mL); test: as above; conditions: 72 h
KHYG-1 (IL-2 2.5 ng/mL) [4] = test: as above; conditions: 72 h
[5] = test system: normal primary NK cells, pool 2 (3 donors) (IL-2 2.5 ng/mL); test: as above; conditions: 72 h
NKL (IL-2 2.5 ng/mL) [6] = test: as above; conditions: 72 h
NK-92 (IL-2 2.5 ng/mL) [7] = test: as above; conditions: 72 h
IMC-1 (IL-2 20 ng/mL) [8] = test: as above; conditions: 72 h
[9] = test system: normal primary NK cells, pool 1 (3 donors) (IL-2 2.5 ng/mL); test: as above; conditions: 72 h
YT (IL-2 2.5 ng/mL) [10] = test: as above; conditions: 72 h
SNK-6 (IL-2 2.5 ng/mL) [11] = test: as above; conditions: 72 h
DERL-7 (IL-2 2.5 ng/mL) [12] = test: as above; conditions: 72 h
NK-YS (IL-2 2.5 ng/mL) [13] = test: as above; conditions: 72 h
[14] = test system: normal primary NK cells, pool 1 (3 donors), resting (IL-2 0 ng/mL); test: as above; conditions: 72 h
KAI3 (IL-2 2.5 ng/mL) [15] = test: percent inhibition of viability; higher = more inhibition; conditions: 72 h
[16] = test system: normal primary NK cells, pool 3 (3 donors) (IL-2 2.5 ng/mL); test: as above; conditions: 72 h
KHYG-1 (IL-2 2.5 ng/mL) [17] = test: as above; conditions: 72 h
[18] = test system: normal primary NK cells, pool 2 (3 donors) (IL-2 2.5 ng/mL); test: as above; conditions: 72 h
NKL (IL-2 2.5 ng/mL) [19] = test: as above; conditions: 72 h
NK-92 (IL-2 2.5 ng/mL) [20] = test: as above; conditions: 72 h
IMC-1 (IL-2 20 ng/mL) [21] = test: as above; conditions: 72 h
[22] = test system: normal primary NK cells, pool 1 (3 donors) (IL-2 2.5 ng/mL); test: as above; conditions: 72 h
YT (IL-2 2.5 ng/mL) [23] = test: as above; conditions: 72 h
SNK-6 (IL-2 2.5 ng/mL) [24] = test: as above; conditions: 72 h
DERL-7 (IL-2 2.5 ng/mL) [25] = test: as above; conditions: 72 h
NK-YS (IL-2 2.5 ng/mL) [26] = test: as above; conditions: 72 h
[27] = test system: normal primary NK cells, pool 1 (3 donors), resting (IL-2 0 ng/mL); test: as above; conditions: 72 h
[28] = test system: normal NK cells expanded with K562-aAPC; test: drug sensitivity score (DSS) (DSS units); higher = more sensitive; extreme values may be limits of the assay; conditions: 72 h; IL-2 2.5 ng/mL
Protocol: as §1

COc1cc(CCc2cc(NC(=O)c3ccc(N4CC(C)NC(C)C4)cc3)n[nH]2)cc(OC)c1 (centres undefined) [AZD4547] (max concentration tested 1000 nM)
percent inhibition of viability [%]
Conditions	0.1 nM	1 nM	10 nM	100 nM	1000 nM
DERL-7 (IL-2 2.5 ng/mL) [25]	0.65	12	4.33	3.09	5.77
IMC-1 (IL-2 20 ng/mL) [21]	-10.2	-0.55	2.58	3.59	11.7
KAI3 (IL-2 2.5 ng/mL) [15]	0.83	0.57	5.8	15.9	18.7
KHYG-1 (IL-2 2.5 ng/mL) [17]	-1.35	-9.6	-4.7	-0.32	6.6
NK-92 (IL-2 2.5 ng/mL) [20]	-8.61	-19.7	-10.4	1.68	9.5
NK-YS (IL-2 2.5 ng/mL) [26]	-1.26	-3.32	-4.3	-2.46	7.41
NKL (IL-2 2.5 ng/mL) [19]	-6.59	-3.17	6.86	22.1	18.6
SNK-6 (IL-2 2.5 ng/mL) [24]	-8.3	-5.78	6.93	-1.06	30.7
YT (IL-2 2.5 ng/mL) [23]	-1.63	-5.24	0.65	14.1	7.45
[1]	-0.43	-4.83	-0.59	0.99	13.7
[16]	-2.75	5.35	5.93	-3.36	6.54
[18]	-16.2	4.82	5.78	1.94	4.66
[22]	0.51	14	13.1	8.85	9.5
[27]	-1.26	20.1	12.4	9.93	10.7

Conditions	drug sensitivity score
DERL-7 (IL-2 2.5 ng/mL) [12]	0
IMC-1 (IL-2 20 ng/mL) [8]	0.05
KAI3 (IL-2 2.5 ng/mL) [2]	2.12
KHYG-1 (IL-2 2.5 ng/mL) [4]	0
NK-92 (IL-2 2.5 ng/mL) [7]	0
NK-YS (IL-2 2.5 ng/mL) [13]	0
NKL (IL-2 2.5 ng/mL) [6]	4.12
SNK-6 (IL-2 2.5 ng/mL) [11]	1.27
YT (IL-2 2.5 ng/mL) [10]	1.18
[3]	0
[5]	0
[9]	3.07
[14]	0.81
[28]	0.21
